This passage reports inhibition results from patent publication US9050345B2, “Pyrrolotriazines as potassium ion channel inhibitors” (BRISTOL-MYERS SQUIBB COMPANY, priority 2013, dated 2015).

T1 sequence (P22460 whole entry): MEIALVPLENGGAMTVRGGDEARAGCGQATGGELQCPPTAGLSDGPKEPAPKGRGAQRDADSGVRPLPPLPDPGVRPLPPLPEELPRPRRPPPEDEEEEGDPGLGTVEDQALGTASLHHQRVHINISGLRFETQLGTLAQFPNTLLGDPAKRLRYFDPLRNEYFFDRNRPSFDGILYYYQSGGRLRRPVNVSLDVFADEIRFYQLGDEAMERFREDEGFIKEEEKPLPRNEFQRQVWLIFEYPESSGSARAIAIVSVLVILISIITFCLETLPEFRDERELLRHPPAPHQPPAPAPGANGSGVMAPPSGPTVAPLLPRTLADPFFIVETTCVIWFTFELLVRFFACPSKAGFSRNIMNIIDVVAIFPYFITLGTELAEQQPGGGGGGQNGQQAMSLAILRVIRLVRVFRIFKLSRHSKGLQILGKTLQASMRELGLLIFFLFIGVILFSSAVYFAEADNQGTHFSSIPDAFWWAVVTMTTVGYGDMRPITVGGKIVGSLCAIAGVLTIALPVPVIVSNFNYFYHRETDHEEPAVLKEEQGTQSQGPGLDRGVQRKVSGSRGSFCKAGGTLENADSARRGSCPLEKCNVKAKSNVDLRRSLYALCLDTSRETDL

This test addresses T1, human KV 1.5 (IKur) (Homo sapiens, UniProt P22460).
T1 construct: expressed in transfected cells
Description: block of IKur current in patch clamped L-929 cells expressing human Kv1.5. Type of test: cell-based. The settings on record: L929, 0.3 μM; patch clamped mammalian L-929 cells stably expressing human Kv1.5; read-out: KV1_5% Inh L929 @0.3 μM. On the technique in general: The patch-clamp technique gives a direct electrical read-out from membranes.
Consider `COC(=O)Nc1ccccc1CNc1nc(-c2cncc(S(N)(=O)=O)c2)nn2ccc(-c3ccccc3)c12` [Example 181, methyl (2-(((5-phenyl-2-(5-sulfamoylpyridin-3-yl)pyrrolo[2,1-f][1,2,4]triazin-4-yl)amino)methyl)phenyl)carbamate], for which the inhibition at 0.3 µM came out at 96%.
In the case of `NS(=O)(=O)c1cncc(-c2nc(NCc3ccccn3)c3c(-c4ccccc4)ccn3n2)c1C(F)F` [Example 182, 4-(difluoromethyl)-5-(5-phenyl-4-((pyridin-2-ylmethyl)amino)pyrrolo [2,1-f][1,2,4]triazin-2-yl)pyridine-3-sulfonamide], the inhibition at 0.3 µM was 93.7%.
For `NS(=O)(=O)c1ccc(-c2nc(NCc3ccccn3)c3c(-c4ccccc4)ccn3n2)cn1` [Example 183, 5-(5-phenyl-4-((pyridin-2-ylmethyl)amino)pyrrolo[2,1-f][1,2,4]triazin-2-yl)pyridine-2-sulfonamide] the value was 97.8%.
To `N#Cc1ccccc1-c1ccn2nc(-c3cncc(S(N)(=O)=O)c3)nc(NCc3ccccn3)c12` [Example 184, 5-(5-(2-cyanophenyl)-4-((pyridin-2-ylmethyl)amino)pyrrolo [2,1-f][1,2,4]triazin-2-yl)pyridine-3-sulfonamide] belongs 80.9%.
